Test system: LS-180 target cells
Experiment: PMN-ADCC target cell lysis assay (⁵¹Cr release)
Format: cell-based, human
Settings: for % Cytotoxicity: PMNs pretreated 30 min, E:T 100:1, 3 h ADCC assay; for % Cytotoxicity / augmentation of PMN-mediated IgG₃ ADCC: antibody NR-CO-04; for augmentation of PMN-mediated IgG₃ ADCC: activator pretreatment of PMNs, summary of Table 2
Method: Peripheral blood polymorphonuclear leukocytes (PMNs) were obtained from healthy normal human donors. Blood (150 cc) was withdrawn by venipuncture in heparinized tubes and mixed with an equal volume of 3% dextran in phosphate-buffered saline (PBS). After sedimentation at 1 x g for 10 min at room temperature, the leukocyte-rich plasma was layered on top of lymphocyte separation medium (LSM, Organon Technica, Durham, NC). PMNs were purified by treating the PMNs and red blood cell (RBC) pellet with RBC lysing solution (0.800% w/v NH₄Cl, 0.1% w/v KHCO₃, 37.0 mg tetrasodium EDTA in 100 ml water at pH 7.3). After incubating approximately 5 min at room temperature, the volume was increased 3X with PBS and the cells washed twice by centrifugation. After resuspension of the cells in RPMI-5% FCS, the PMNs were used in cytotoxicity assays or were incubated with response modifiers.
An appropriate number of target cells were labeled with 200 µCi ⁵¹Cr (⁵¹Cr-Na₂CrO₃; New England Nuclear, Boston, MA) for 2 h at 37°C, with gentle mixing every 15-30 min. The labeled cells were washed three times with 15 ml RPMI followed by centrifugation at 250 x g for 5 min at room temperature. The final pellet was resuspended in RPMI containing 5% FCS, counted, and diluted to an appropriate concentration.
In a typical assay, effector PMNs at different effector:target ratios were added to wells of a microtiter plate (Falcon Plastics, Oxnard, CA), except for those wells to be used for determination of total and spontaneous release of ⁵¹Cr from target cells. For GM-CSF augmentation, PMNs were generally treated within the microtiter plates by the addition of the lymphokine. The effector cells were either washed before the addition of antibody and target cells, or were left in the presence of lymphokine during the ADCC assay.
NR-CO-04 antibody was added to appropriate wells at a concentration of 1 µg/well (4 µg/ml), and the microtiter plate was then incubated at 37°C for 3 h. […]
Wells used for determination of spontaneous ⁵¹Cr release received labeled target cells alone in 200 µl of RPMI-5% FCS; the wells used for determination of total ⁵¹Cr release received labeled target cells and 200 µl 1.0% NP-40.
After […] incubation, the microtiter plate was centrifuged at 250 x g for 5 min at room temperature, and 125 µl of supernatant was transferred from each well into a separate 12 x 75 mm glass tube. Each tube was then assayed for ⁵¹Cr release with a Beckman 5000 gamma counter.
PMN-ADCC assays were performed in triplicate, according to the procedure described in Example I.E., supra. The % lysis (or percent specific release) is indicative of the level of ADCC of target cells. Test release is the amount of release in wells containing effector cells and target cells.

Molecule | % Cytotoxicity (concentration not given) [%] | augmentation of PMN-mediated IgG₃ ADCC | GM-CSF augmentation of PMN-ADCC (dose-dependent, 1 to 100 μM retinal, summary of Table 4) | low level of PMN-ADCC observed in the absence of GM-CSF stimulation (dose-dependent, summary of Table 4) | % Cytotoxicity (10⁻⁷ M) [%] | % Cytotoxicity (10⁻⁸ M) [%] | % Cytotoxicity (10⁻⁹ M) [%]
CCCCCCCCCCCCCC(=O)O[C@@H]1[C@@H](C)[C@@]2(O)[C@@H](C=C(CO)C[C@]3(O)C(=O)C(C)=C[C@@H]23)[C@@H]2C(C)(C)[C@]12OC(C)=O [PMA, phorbol myristate acetate] | 18.8 ± 0.6 | less effective than GM-CSF | – | – | – | – | –
CC1=C(/C=C/C(C)=C/C=C/C(C)=C/C=O)C(C)(C)CCC1 [Retinal] | – | – | abrogated | further depressed | – | – | –
fMET-Leu-Phe peptide [fMLP] | – | less effective than GM-CSF | – | – | 16.2 ± 0.8 | 23.7 ± 1.2 | 15.6 ± 0.8
